Series [1] deals with T1, Replicase polyprotein 1ab (Severe acute respiratory syndrome coronavirus 2, UniProt P0DTD1). Description: Inhibition of 2019-nCoV-2 3CLp using fluorescent substrate by FRET assay.
Series [2] is described as follows: Cytotoxicity against African green monkey Vero E6 cells. The series is classed as toxicity, cell-based, Vero C1008. The conditions noted are these: chlorocebus sabaeus.
The subject of series [3] is SARS-CoV-2. Description: Antiviral activity against SARS-CoV-2. The conditions noted are these: Severe acute respiratory syndrome coronavirus 2. The series is classed as functional, organism-based.
The target of series [4] is von Hippel-Lindau disease tumor suppressor-SARS-Cov-2 polyprotein (Severe acute respiratory syndrome coronavirus 2, UniProt P0DTD1+P40337). In words: PROTAC activity at SARS-CoV-2 Main protease/VHL (unknown origin) in SARS-CoV-2 infected african green monkey Vero cell assessed as inhibition of virus-mediated cytopathic effect measured after 72 hrs. The series is classed as cell-based. For orientation: Cytopathic effects are the visible damage that an infection or toxin causes in cultured cells.
Chain of von Hippel-Lindau disease tumor suppressor-SARS-Cov-2 polyprotein (P40337 whole entry, other chains not shown): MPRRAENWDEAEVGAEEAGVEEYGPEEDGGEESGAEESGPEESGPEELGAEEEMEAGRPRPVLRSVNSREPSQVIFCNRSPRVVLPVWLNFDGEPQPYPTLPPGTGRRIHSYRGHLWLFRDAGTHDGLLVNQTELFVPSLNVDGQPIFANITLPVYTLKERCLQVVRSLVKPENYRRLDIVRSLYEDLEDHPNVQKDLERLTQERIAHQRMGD

For series [5], the target named is T1, Replicase polyprotein 1ab. In words: Inhibition of SARS-CoV-2 3CLp using fluorescent substrate by FRET assay.
Series [6] addresses T1, Replicase polyprotein 1ab. In words: Inhibition of SARS-CoV-2 recombinant main protease. The series is classed as single protein.

pEC50, pIC50: −log10 of the molar value.

By pIC50 is commonly meant −log10 of the IC50, conventionally taken in molar units. Broadly, the CC50 is the concentration at which the toxic effect on the cells reaches its halfway point. Turning to `CC(C)(C)NC(=O)[C@@H](c1cccnc1)N(C(=O)c1c[nH]cn1)c1ccc(C(C)(C)C)cc1`, the pIC50 in series [1] was 6.02. Besides, the CC50 in series [2] was 129 µM.
As to `C[C@H](NC(=O)[C@@H](c1cccnc1)N(C(=O)c1ccco1)c1ccc(-c2ccccc2)cc1)c1ccccc1`, the pIC50 in series [1] was 6.18. The compound also registered a half-maximal cytotoxic concentration (CC50) in series [2] of more than 200 µM.
By pEC50 is commonly meant the EC50 on a negative log10 scale, so that one unit is a factor of ten. For `COc1cc(O)c2c(c1)O[C@H](c1cc(O)c(O)c(O)c1)[C@@H](O)C2=O`, in series [3], the pEC50 is 4.94.
On to `COc1cc(O)c2c(=O)c(O)c(-c3cc(O)c(O)c(O)c3)oc2c1`, for which, in series [3], the negative-log EC50 (pEC50) was 4.90.
The same measure, in the same setting: the same measure for `O=c1c(O)c(-c2cc(O)c(O)c(O)c2)oc2cc(OP(=O)(Oc3ccccc3)Oc3ccccc3)cc(O)c12`: 5.50.
As for `Cc1ncsc1-c1ccc(CNC(=O)[C@@H]2C[C@@H](O)CN2C(=O)[C@@H](NC(=O)CCOCCOCCOCCn2nnc(COc3ccc(OC(=O)N[C@@H](CC(C)C)C(=O)N[C@@H](C[C@@H]4CCNC4=O)C(O)S(=O)(=O)O)cc3)c2C)C(C)(C)C)cc1` (stereo partly specified), the pEC50 in series [4] was 6.68.
In series [1], `CC(C)(C)NC(=O)[C@@H](c1cccnc1)N(C(=O)c1cnco1)c1ccc(-c2ccccc2)cc1` showed a pIC50 of 5.30. The compound also registered a CC50 in series [2] of 67 µM.
As for `CC(C)(C)c1ccc(N(C(=O)c2ccco2)[C@@H](C(=O)NC2CCCC2)c2cccnc2)cc1`, the negative-log IC50 (pIC50) in series [1] is 5.60. This compound also yielded a cytotoxic concentration (CC50) in series [2] of 101 µM.
As for `CC(C)CCOc1cc(O)c2c(=O)c(O)c(-c3cc(O)c(O)c(O)c3)oc2c1`, the negative-log IC50 (pIC50) in series [5] is 5.72. The compound further had a negative-log EC50 (pEC50) in series [3] of 4.50.
`CCOc1cc(O)c2c(=O)c(O)c(-c3cc(O)c(O)c(O)c3)oc2c1` showed a negative-log IC50 (pIC50) in series [5] of 6.13. Further, the pEC50 in series [3] was 4.29.
The compound `CC(C)(C)c1ccc(N(C(=O)c2ccco2)[C@@H](C(=O)NC2CC2)c2cccnc2)cc1` had a negative-log IC50 (pIC50) in series [1] of 5.41. The CC50 in series [2] turned out to be 52.8 µM.
For `Cc1ncsc1-c1ccc(CNC(=O)[C@@H]2C[C@@H](O)CN2C(=O)[C@@H](NC(=O)CCOCCOCCOCCn2nnc(COc3ccc(OC(=O)N[C@@H](CC(C)C)C(=O)N[C@H](C=O)C[C@@H]4CCNC4=O)cc3)c2C)C(C)(C)C)cc1`, the negative logarithm of the EC50 (pEC50) in series [4] is 7.10.
For the compound `CC(C)(C)NC(=O)[C@@H](c1cnccn1)N(C(=O)c1ccco1)c1ccc(-c2ccccc2)cc1`, the negative logarithm of the IC50 (pIC50) in series [1] is 6.55. For the same compound, the CC50 in series [2] was more than 200 µM.
For `CC1COP(=O)(Oc2cc(O)c3c(=O)c(O)c(-c4cc(O)c(O)c(O)c4)oc3c2)OC1` (stereo unspecified), the negative logarithm of the IC50 (pIC50) in series [5] was 5.18. For the same compound, the pEC50 in series [3] is 4.48.
In series [3], `O=C1c2c(O)cc(OP(=O)(Oc3ccccc3)Oc3ccccc3)cc2O[C@H](c2cc(O)c(O)c(O)c2)[C@H]1O` had a negative logarithm of the EC50 (pEC50) of 5.04.
Take `O=c1c(O)c(-c2cc(O)c(O)c(O)c2)oc2cc(OCC3CCCC3)cc(O)c12`: the pIC50 in series [5] was 5.61. Besides, the negative-log EC50 (pEC50) in series [3] was 5.12.
Compound `CC(C)(C)NC(=O)[C@@H](c1cccnc1)N(C(=O)c1ccno1)c1ccc(-c2ccccc2)cc1` had a pIC50 in series [1] of 5.61. In series [2], this compound gave a CC50 of more than 200 µM.
With `C[C@H](NC(=O)[C@@H](c1cccnc1)N(C(=O)c1ccco1)c1ccc(-n2cccc2)cc1)c1ccccc1`, the pIC50 in series [1] is 6.03. In series [2], this compound yielded a CC50 of more than 200 µM.
In series [1], `CC(C)(C)c1ccc(N(C(=O)c2ccco2)[C@@H](C(=O)NC2CCCCC2)c2cccnc2)cc1` had a pIC50 of 5.62. The half-maximal cytotoxic concentration (CC50) in series [2] stood at 18.2 µM.
On to `O=c1[nH]cc(-c2cc(-c3cc(Cl)cc(COc4ccccc4Cl)c3)c(=O)n(-c3cccnc3)c2)c(=O)[nH]1`, for which the pIC50 in series [6] was 7.74.
Turning to `Cc1ncsc1-c1ccc(CNC(=O)[C@@H]2C[C@@H](O)CN2C(=O)[C@@H](NC(=O)CCC(=O)NCCOCCn2nnc(COc3ccc(OC(=O)N[C@@H](CC(C)C)C(=O)N[C@H](C=O)C[C@@H]4CCNC4=O)cc3)c2C)C(C)(C)C)cc1`, the pEC50 in series [4] is 6.92.
As for `Cc1ncsc1-c1ccc(CNC(=O)[C@@H]2C[C@@H](O)CN2C(=O)[C@@H](NC(=O)CCOCCOCCOCCn2nnc(COc3ccc(OC(=O)N[C@@H](CC(C)C)C(=O)N[C@H](CO)C[C@@H]4CCNC4=O)cc3)c2C)C(C)(C)C)cc1`, the pEC50 in series [4] is 6.12.
The compound `O=C1c2c(O)cc(O)cc2O[C@H](c2cc(O)c(O)c(O)c2)[C@H]1O` [AMPELOPSIN] gave a negative-log EC50 (pEC50) in series [3] of 4.87.

(Values after ChEMBL document CHEMBL5512603, “Development of de-novo coronavirus 3-chymotrypsin-like protease (3CLpro) inhibitors since COVID-19 outbreak: A strategy to tackle challenges of persistent virus infection” (Eur J Med Chem, 2024).)
